Measurements taken from patent US6943253B2, “6-phenylpyrrolopyrimidinedione derivatives” (Almirall Prodesfarma S.A., priority 2000, dated 2005).

target: T1, cyclic GMP specific phosphodiesterase (PDE 5) (Homo sapiens, UniProt O76074); test: PDE 5 inhibitory activity, enzyme isolated from human platelet lysates; type: biochemical; details: PDE 5 from human platelet lysates; 0.25 mM [3H]-cyclic GMP as substrate; read-out: IC50 PDE5
T1 construct: isolated from human platelet lysates by ion exchange chromatography using a Mono-Q column; from tissue; host or cells: human platelets (lysate, Mono-Q ion exchange fraction)
Procedure: The cyclic GMP specific phosphodiesterase (PDE 5) was isolated from human platelet lysates by ion exchange chromatography using a Mono-Q column. The enzyme activity was determined using 0.25 mM [3H]-cyclic GMP as substrate. The purification of the enzyme and the assessment of the PDE 5 inhibitory activity of our compounds were performed essentially as described by R. W. Gristwood et al., Br. J. Pharmacol. 1992, 105:985-991.

| Structure (SMILES) | IC50 [nM] |
| --- | --- |
| CCCn1c(=O)n(C)c(=O)c2[nH]c(-c3cc(S(=O)(=O)N4CCN(C)CC4)ccc3OCC)c(Cl)c21 [Example 27, 7-Chloro-6-[2-ethoxy-5-(4-methylpiperazine-1-sulfonyl)phenyl]-3-methyl-1-propyl-1,5-dihydropyrrolo[3,2-d]pyrimidine-2,4-dione] | 3.4 |
| CCCOc1ccc(S(=O)(=O)N2CCN(C)CC2)cc1-c1cc2c([nH]1)c(=O)n(C)c(=O)n2CCC [Example 12, 3-Methyl-6-[5-(4-methylpiperazine-1-sulphonyl)-2-propoxyphenyl]-1-propyl-1,5-dihydropyrrolo[3,2-d]pyrimidine-2,4-dione] | 14 |
| CCCOc1ccc(S(=O)(=O)N2CCN(CC)CC2)cc1-c1[nH]c2c(=O)n(C)c(=O)n(CCC)c2c1Cl [Example 34, 7-Chloro-6-[5-(4-ethylpiperazine-1-sulfonyl)-2-propoxyphenyl]-3-methyl-1-propyl-1,5-dihydropyrrolo[3,2-d]pyrimidine-2,4-dione] | 3.6 |
| CCCOc1ccc(S(=O)(=O)N2CCN(C)CC2)cc1-c1[nH]c2c(=O)n(C)c(=O)n(CCC)c2c1Cl [Example 33, 7-Chloro-3-methyl-6-[5-(4-methylpiperazine-1-sulfonyl)-2-propoxyphenyl]-1-propyl-1,5-dihydropyrrolo[3,2-d]pyrimidine-2,4-dione] | 4.2 |
| CCCOc1ccc(S(=O)(=O)N2CCN(CC)CC2)cc1-c1cc2c([nH]1)c(=O)n(C)c(=O)n2CCC [Example 13, 6-[5-(4-Ethylpiperazine-1-sulphonyl)-2-propoxyphenyl]-3-methyl-1-propyl-1,5-dihydropyrrolo[3,2-d]pyrimidine-2,4-dione] | 8 |

Second part, the compound after the results:

| IC50 [nM] | Structure (SMILES) |
| --- | --- |
| 4.5 | CCCOc1ccc(S(=O)(=O)N2CCN(C)CC2)cc1-c1[nH]c2c(=O)n(C)c(=O)n(CCC)c2c1Br [Example 50, 7-Bromo-3-methyl-6-[5-(4-methylpiperazine-1-sulfonyl)-2-propoxyphenyl]-1-propyl-1,5-dihydropyrrolo[3,2-d]pyrimidine-2,4-dione] |
| 9.2 | CCCn1c(=O)n(C)c(=O)c2[nH]c(-c3cc(S(=O)(=O)N4CCN(CCCO)CC4)ccc3OCC)c(Br)c21 [Example 47, 7-Bromo-6-{2-ethoxy-5-[4-(3-hydroxypropyl)piperazine-1-sulfonyl]phenyl}-3-methyl-1-propyl-1,5-dihydropyrrolo[3,2-d]pyrimidine-2,4-dione] |
| 4 | CCCOc1ccc(S(=O)(=O)N2CCN(CCCO)CC2)cc1-c1[nH]c2c(=O)n(C)c(=O)n(CCC)c2c1Br [Example 57, 7-Bromo-6-{5-[4-(3-hydroxypropyl)piperazine-1-sulfonyl]-2-propoxyphenyl}-3-methyl-1-propyl-1,5-dihydropyrrolo[3,2-d]pyrimidine-2,4-dione] |
| 3.4 | CCCOc1ccc(S(=O)(=O)N2CCN(CCO)CC2)cc1-c1[nH]c2c(=O)n(C)c(=O)n(CCC)c2c1Cl [Example 35, 7-Chloro-6-{5-[4-(2-hydroxyethyl)piperazine-1-sulfonyl]-2-propoxyphenyl}-3-methyl-1-propyl-1,5-dihydropyrrolo[3,2-d]pyrimidine-2,4-dione] |
| 6.6 | CCCOc1ccc(S(=O)(=O)N2CCN(CCO)CC2)cc1-c1[nH]c2c(=O)n(C)c(=O)n(CCC)c2c1Br [Example 55, 7-Bromo-6-{5-[4-(2-hydroxyethyl)piperazine-1-sulfonyl]-2-propoxyphenyl}-3-methyl-1-propyl-1,5-dihydropyrrolo[3,2-d]pyrimidine-2,4-dione] |
